According to US11542508B2, “Isolated polynucleotides and polypeptides and methods of using same for expressing an expression product of interest” (priority 2016, dated 2023):

Tested on: phi3T
Assay: Sequencing-based assay for lysogeny
Assay type: cell-based, B. subtilis 168
Details: 60 minutes post infection, phi3T MOI=2, peptide 1 μM; 18% (±3.3%) without peptide
Experimental: An overnight culture of bacteria was diluted 1/100 until reaching O.D 600 nm=0.1. Medium was replaced as described above [LB supplemented with 0.1 mM MnCl2 and 5 mM MgCl2 with or without SAIRGA (SEQ ID NO: 269)], and incubated for 1 hour at room temperature. Bacteria were infected by phi3T at multiplicity of infection (MOI)=2. Cell pellets were collected at 5, 10, 20 and 60 minutes post infection in the presence or absence of SAIRGA (SEQ ID NO: 269) peptide at 1 μM final concentration in the medium. DNA was extracted using QIAGEN DNeasy blood and tissue kit (CAT #69504) and subjected to Illumina-based whole genome sequencing on NextSeq500. The relative abundance of lysogens in each sample was estimated using the number of reads mapped to the uninterrupted integration site versus reads mapped to the integration junction spanning the prophage DNA on one end and the bacterial DNA on the other end.

## CC[C@H](C)[C@H](NC(=O)[C@H](C)NC(=O)[C@@H](N)CO)C(=O)N[C@@H](CCCNC(=N)N)C(=O)NCC(=O)N[C@@H](C)C(=O)O [SAIRGA, Ser-Ala-Ile-Arg-Gly-Ala]
  bacteria lysogenized: 48% (±7.9%)
